Legend:
[1] = system: lung fibroblasts; conditions: in vitro; cited from earlier work
[2] = system: gene for TGF-β1; conditions: bleomycin-induced model of lung fibrosis, exogenous interferon-γ; cited from earlier work
[3] = system: NASH; test: clinical trial in patients with moderately severe NASH; assay type: in vivo, human; conditions: subcutaneous delivery, monotherapy
Description: The dosage and delivery mechanism for relaxin H2 is subcutaneous delivery of the molecule based on the earlier reports for the scleroderma trial. […] The dosage of relaxin H2 in the present trial is the most efficacious level that was used in the earlier reported scleroderma trial, a subcutaneous relaxin infusion rate of 25 μg/kg/day, with the mode of delivery via continuous subcutaneous delivery (e.g., through implantation of an osmotic pump). The simultaneous dosage of follistatin will be 50 μg/kg/day through subcutaneous delivery.
A formulation comprised of rH2 relaxin and recombinant human follistatin 315 is used to improve prognosis and decrease on-going damage caused from on-going hepatic damage in patients diagnosed with moderately severe NASH. The measured end points are indicative of a decrease of reduction of area of damage in the liver and increased liver enzyme function. […]
rH2 relaxin and follistatin administration are studied in a small patient population of NASH and an improvement in liver enzyme levels and liver function is measured as a primary end point. A decrease in on-going damage as determined by imaging techniques is also measured. […] In addition, elements such as diet and exercise are carefully monitored in the trial populations as these may impact on the improvement of the underlying metabolic disorder and potentially skew the results.

[4] = system: rat model of hypertension; conditions: cited from earlier work
[5] = system: hepatic stellate cells (HSCs); conditions: rat CCl4 model of liver damage; cited from earlier work
[6] = human, in vivo; cited from earlier work
[7] = system: CCl4-exposed rats; conditions: cited from earlier work
[8] = system: HSC; conditions: cited from earlier work
[9] = system: liver; conditions: cited from earlier work
[10] = system: tumor cell; conditions: in vitro or in vivo studies; cited from earlier work
[11] = system: progressive pulmonary fibrosis; conditions: patients with idiopathic pulmonary fibrosis, scleroderma or sarcoidosis resistant to three months of high-dose glucocorticoids; cited from earlier work

interferon-γ
proliferation of lung fibroblasts [1]: inhibits the proliferation of lung fibroblasts in a dose-dependent manner | synthesis of protein in fibroblasts [1]: reduces the synthesis of protein in fibroblasts | transcription of the gene for TGF-β1 [2]: down-regulated

relaxin
improvement versus vehicle (liver enzyme levels, liver function) [3]: significant improvement over those treated with vehicle | fibrosis associated with organ damage [4]: reversing cardiac and renal fibrosis | collagen deposition by hepatic stellate cells [5]: inhibit collagen deposition by hepatic stellate cells | adverse events [6]: few adverse events

follistatin
improvement versus vehicle (liver enzyme levels, liver function) [3]: significant improvement over those treated with vehicle | reduction in fibrosis ([7]; CCl4-exposed rats treated with the peptide): 32% | decrease of hepatocyte apoptosis ([7]; CCl4-exposed rats, during treatment, effect maximal at week 4): 87% | TGF-β-induced secretion of collagen [8]: inhibit TGF-β-induced secretion of collagen from HSC | liver weight ([9]; after hepatic resection): significantly increases liver weight | cell replication and liver size ([9]; following partial hepatectomy): actively promote cell replication and increase liver size | tumor cell growth [10]: did not accelerate tumor cell growth

interferon γ-1b
clinical efficacy in progressive pulmonary fibrosis [11]: effective

Reference: patent publication US20080045609A1, “METHODS AND THERAPEUTICS TO FACILITATE LIVER REPAIR” (priority 2006, published 2008)
